Literature values as cited in patent US20230111210A1, “COCRYSTAL ANTIOXIDANTS OF PROTOCATECHUIC ACID WITH L-THEANINE FOR THE TREATMENT OF OXIDATIVE STRESS AND INFLAMMATORY CONDITIONS” (priority 2020, published 2023).
In brackets after ≈: the same amount, converted by molar mass.

Tests used:
[1] = tested on: AMPA (α-amino-3-hydroxy-5-methyl-4-isoxazolepropionic acid) receptors
[2] = not given; remark: listed apart in the source
rats = conditions: rat, in vivo
[3] = tested on: NMDA (N-methyl-D-Aspartate) receptors
rabbits = conditions: rabbit, in vivo

Row | Structure (SMILES) | affinity for AMPA receptors [1] | pKa | solubility in water (in words) [2] | LD50 (rats) | affinity for NMDA receptors [3] | affinity for Kainate receptors (Kainate receptors) | oral LD50 (rabbits) | solubility in water [2] [mg/mL]
1 | CCNC(=O)CC[C@H](N)C(=O)O [L-theanine, N-ethyl-L-glutamine] | micromolar affinities | 2.35 | soluble in water | greater than 5000 mg/kg | micromolar affinities | micromolar affinities | – | –
2 | O=C(O)c1ccc(O)c(O)c1 [Protocatechuic acid, 3,4-dihydroxybenzoic acid] | – | 4.26 | – | – | – | – | greater than 3000 mg/kg | 18.2 (≈ 118 mM)
